Values joined by “and” are separate entries in the source; they are usually repeats but may differ in a detail not shown here. Equal entries are not always repeated. Where two headings read alike, the source gives them in different places.
Tested on: Sprague-Dawley rats
Assay: Serum thyroid hormones (FT3, FT4, TSH)
Assay type: in vivo, Rattus norvegicus
Conditions: for Emax: Rattus norvegicus; for TSH / fT3 / fT4: group mean
Procedure: Serum free triiodothyronine (FT3), free thyroxine (FT4) and thyroid stimulating hormone (TSH) were measured by Elecsys 2010 immunochemistry analyzer using Roche FT3, FT4 and TSH reagents (all from Roche Diagnostics GmbH, Mannheim, Germany). The test principle is electrochemiluminescence immunoassay (ECLIA).
Data were also analyzed using the BMD method, which is based on dose-response modeling of the full data set using a nested family of exponential and Hill models. The analyses were done on data of males and females combined, using sex as a covariate. […] In that case, different Critical Effect Doses (CEDs) and CEDs at the lowest bound of the confidence interval (CED-L) were generated for each sex. If no difference between sexes is detected, a CED and CED-Ls for the combined data is generated. However, this was also done if the curve fits are close, and separate analyses for males and females were then performed manually. CEDs and CED-Ls were calculated at the predefined Critical Effect Size (CES) of 5% (EFSA standard) or 10%.

[1] = F, CES 5%, model E2, adipose tissue concentration based
[2] = F, CES 5%, model E2, adipose tissue concentration based, half min value added to zeros
[3] = F, CES 10%, model E2, adipose tissue concentration based
[4] = F, CES 10%, model E2, adipose tissue concentration based, half min value added to zeros
[5] = M, CES 5%, model E4, adipose tissue concentration based
[6] = M, CES 5%, model E4, adipose tissue concentration based, half min value added to zeros
[7] = M, CES 10%, model E4, adipose tissue concentration based
[8] = M, CES 10%, model E4, adipose tissue concentration based, half min value added to zeros
[9] = females, CES 5%, total dose based
[10] = females, CES 5%, total dose based, half min value added to zeros
[11] = females, CES 10%, total dose based
[12] = females, CES 10%, total dose based, half min value added to zeros
[13] = females, adipose tissue concentration based
[14] = females, total dose 10 mg/kg bw
[15] = females, total dose 30 mg/kg bw
[16] = females, total dose 100 mg/kg bw
[17] = females, total dose 300 mg/kg bw
[18] = females, total dose 1000 mg/kg bw
[19] = females, total dose 1700 mg/kg bw
[20] = males, CES 5%, total dose based
[21] = males, CES 5%, total dose based, half min value added to zeros
[22] = males, CES 10%, total dose based
[23] = males, CES 10%, total dose based, half min value added to zeros
[24] = males, adipose tissue concentration based
[25] = males, total dose 1000 mg/kg bw
[26] = males, total dose 1700 mg/kg bw

## Clc1cc(Cl)c(-c2cc(Cl)c(Cl)c(Cl)c2Cl)cc1Cl [PCB 180, 2,2′,3′,4,4′,5,5′-heptachlorobiphenyl]
[1]
  CED, Serum free T3 (S-fT3): 2280 µg/g lipid
  CED, Serum free T4 (S-fT4): 821 µg/g lipid
  CED-L, Serum free T3 (S-fT3): 1496 µg/g lipid
  CED-L, Serum free T4 (S-fT4): 683 µg/g lipid
[2]
  CED, Serum TSH: 206 µg/g lipid
  CED-L, Serum TSH: 126 µg/g lipid
[3]
  CED, Serum free T3 (S-fT3): 4680 µg/g lipid
  CED, Serum free T4 (S-fT4): 1690 µg/g lipid
  CED-L, Serum free T3 (S-fT3): 3072 µg/g lipid
  CED-L, Serum free T4 (S-fT4): 1402 µg/g lipid
[4]
  CED, Serum TSH: 402 µg/g lipid
  CED-L, Serum TSH: 246 µg/g lipid
[5]
  CED, Serum free T3 (S-fT3): 428 µg/g lipid
  CED, Serum free T4 (S-fT4): 158 µg/g lipid
  CED-L, Serum free T3 (S-fT3): 196 µg/g lipid
  CED-L, Serum free T4 (S-fT4): 117 µg/g lipid
[6]
  CED, Serum TSH: 0.29 µg/g lipid
  CED-L, Serum TSH: 0.04 µg/g lipid
[7]
  CED, Serum free T3 (S-fT3): 976 µg/g lipid
  CED, Serum free T4 (S-fT4): 328 µg/g lipid
  CED-L, Serum free T3 (S-fT3): 449 µg/g lipid
  CED-L, Serum free T4 (S-fT4): 243 µg/g lipid
[8]
  CED, Serum TSH: 0.58 µg/g lipid
  CED-L, Serum TSH: 0.09 µg/g lipid
F, model E2, controls vs high dose according to the fitted model, read-out: Maximum response, Serum free T3 (S-fT3)
  Emax: -22.5%
females, controls vs high dose, fitted model, read-out: Serum free T3 (S-fT3), Maximum response
  Emax: -21.8%
males, controls vs high dose, fitted model, read-out: Serum free T3 (S-fT3), Maximum response
  Emax: -26%
read-out: Maximum response, Serum free T4 (S-fT4), F, model E2, controls vs high dose according to the fitted model
  Emax: -50.7%
read-out: Maximum response, Serum free T4 (S-fT4), M, model E4, controls vs high dose according to the fitted model
  Emax: -67.2%
read-out: Serum free T4 (S-fT4), Maximum response, females, controls vs high dose, fitted model
  Emax: -49.4%
read-out: Serum free T4 (S-fT4), Maximum response, males, controls vs high dose, fitted model
  Emax: -66.7%
Model E4, controls vs high dose according to the fitted model, read-out: Maximum response, Serum free T3 (S-fT3)
  Emax: -25%
females
  fT3, Dose response: D, T
  fT4, Dose response: D, T
[9]
  Serum free T3 (S-fT3), CED: 354 mg/kg bw
  Serum free T3 (S-fT3), CED-L: 233 mg/kg bw
  Serum free T4 (S-fT4), CED: 128 mg/kg bw
  Serum free T4 (S-fT4), CED-L: 106.6 mg/kg bw
[10]
  Serum TSH, CED: 32.5 mg/kg bw
  Serum TSH, CED-L: 19.9 mg/kg bw
[11]
  Serum free T3 (S-fT3), CED: 727 mg/kg bw
  Serum free T3 (S-fT3), CED-L: 479 mg/kg bw
  Serum free T4 (S-fT4), CED: 263 mg/kg bw
  Serum free T4 (S-fT4), CED-L: 219 mg/kg bw
[12]
  Serum TSH, CED: 63.5 mg/kg bw
  Serum TSH, CED-L: 38.8 mg/kg bw
[13]
  Serum free T3, CED: 2280 µg/g lipid
  Serum free T4, CED: 821 µg/g lipid
females, total dose 3 mg/kg bw
  TSH: 0.047 µIU/ml
  fT3: 5.72 pmol/L
  fT4: 22.2 pmol/L
[14]
  TSH: 0.000136 µIU/ml
  fT3: 5.10 pmol/L
  fT4: 19.1 pmol/L
[15]
  TSH: 0.00543 µIU/ml
  fT3: 6.17 pmol/L
  fT4: 23.4 pmol/L
[16]
  TSH: 0.011 µIU/ml
  fT3: 6.20 pmol/L
  fT4: 22.4 pmol/L
[17]
  TSH: 0.021 µIU/ml
  fT3: 5.68 pmol/L
  fT4: 18.0 pmol/L
[18]
  TSH: 0.011 µIU/ml
  fT3: 5.16 pmol/L
  fT4: 15.3 pmol/L
[19]
  TSH: 0.066 µIU/ml
  fT3: 4.70 pmol/L
  fT4: 11.1 pmol/L
males
  Increased serum TSH, CED-L: 0.04 µg/g lipid
  TSH, Dose response: D, T
  fT3, Dose response: D, T
  fT4, Dose response: D, T
[20]
  Serum free T3 (S-fT3), CED: 290 mg/kg bw
  Serum free T3 (S-fT3), CED-L: 218 mg/kg bw
  Serum free T4 (S-fT4), CED: 38.1 mg/kg bw
  Serum free T4 (S-fT4), CED-L: 26.8 mg/kg bw
[21]
  Serum TSH, CED: 0.07 mg/kg bw and 0.0747 mg/kg bw
  Serum TSH, CED-L: 0.0139 mg/kg bw
[22]
  Serum free T3 (S-fT3), CED: 596 mg/kg bw
  Serum free T3 (S-fT3), CED-L: 448 mg/kg bw
  Serum free T4 (S-fT4), CED: 79.4 mg/kg bw
  Serum free T4 (S-fT4), CED-L: 56.0 mg/kg bw
[23]
  Serum TSH, CED: 0.149 mg/kg bw
  Serum TSH, CED-L: 0.0278 mg/kg bw
[24]
  Serum TSH, CED: 0.29 µg/g lipid
  Serum free T3, CED: 428 µg/g lipid
  Serum free T4, CED: 158 µg/g lipid
  Serum thyroxine, CED-L: 117000 ng/g lipid
males, total dose 3 mg/kg bw
  TSH: 0.021 µIU/ml
  fT3: 5.74 pmol/L
  fT4: 25.4 pmol/L
males, total dose 10 mg/kg bw
  TSH: 0.057 µIU/ml
  fT3: 5.58 pmol/L
  fT4: 28.4 pmol/L
males, total dose 30 mg/kg bw
  TSH: 0.059 µIU/ml
  fT3: 5.77 pmol/L
  fT4: 27.2 pmol/L
males, total dose 100 mg/kg bw
  TSH: 0.089 µIU/ml
  fT3: 5.39 pmol/L
  fT4: 21.7 pmol/L
males, total dose 300 mg/kg bw
  TSH: 0.075 µIU/ml
  fT3: 5.24 pmol/L
  fT4: 17.6 pmol/L
[25]
  TSH: 0.100 µIU/ml
  fT3: 4.21 pmol/L
  fT4: 11.7 pmol/L
[26]
  TSH: 0.137 µIU/ml
  fT3: 4.41 pmol/L
  fT4: 8.71 pmol/L
